Results on 30 molecules are retold here after patent US10758534B2 (Vertex Pharmaceuticals Incorporated, priority 2014, dated 2020).

T1 sequence (P13569 with tags, fused parts or gaps DEL508-508): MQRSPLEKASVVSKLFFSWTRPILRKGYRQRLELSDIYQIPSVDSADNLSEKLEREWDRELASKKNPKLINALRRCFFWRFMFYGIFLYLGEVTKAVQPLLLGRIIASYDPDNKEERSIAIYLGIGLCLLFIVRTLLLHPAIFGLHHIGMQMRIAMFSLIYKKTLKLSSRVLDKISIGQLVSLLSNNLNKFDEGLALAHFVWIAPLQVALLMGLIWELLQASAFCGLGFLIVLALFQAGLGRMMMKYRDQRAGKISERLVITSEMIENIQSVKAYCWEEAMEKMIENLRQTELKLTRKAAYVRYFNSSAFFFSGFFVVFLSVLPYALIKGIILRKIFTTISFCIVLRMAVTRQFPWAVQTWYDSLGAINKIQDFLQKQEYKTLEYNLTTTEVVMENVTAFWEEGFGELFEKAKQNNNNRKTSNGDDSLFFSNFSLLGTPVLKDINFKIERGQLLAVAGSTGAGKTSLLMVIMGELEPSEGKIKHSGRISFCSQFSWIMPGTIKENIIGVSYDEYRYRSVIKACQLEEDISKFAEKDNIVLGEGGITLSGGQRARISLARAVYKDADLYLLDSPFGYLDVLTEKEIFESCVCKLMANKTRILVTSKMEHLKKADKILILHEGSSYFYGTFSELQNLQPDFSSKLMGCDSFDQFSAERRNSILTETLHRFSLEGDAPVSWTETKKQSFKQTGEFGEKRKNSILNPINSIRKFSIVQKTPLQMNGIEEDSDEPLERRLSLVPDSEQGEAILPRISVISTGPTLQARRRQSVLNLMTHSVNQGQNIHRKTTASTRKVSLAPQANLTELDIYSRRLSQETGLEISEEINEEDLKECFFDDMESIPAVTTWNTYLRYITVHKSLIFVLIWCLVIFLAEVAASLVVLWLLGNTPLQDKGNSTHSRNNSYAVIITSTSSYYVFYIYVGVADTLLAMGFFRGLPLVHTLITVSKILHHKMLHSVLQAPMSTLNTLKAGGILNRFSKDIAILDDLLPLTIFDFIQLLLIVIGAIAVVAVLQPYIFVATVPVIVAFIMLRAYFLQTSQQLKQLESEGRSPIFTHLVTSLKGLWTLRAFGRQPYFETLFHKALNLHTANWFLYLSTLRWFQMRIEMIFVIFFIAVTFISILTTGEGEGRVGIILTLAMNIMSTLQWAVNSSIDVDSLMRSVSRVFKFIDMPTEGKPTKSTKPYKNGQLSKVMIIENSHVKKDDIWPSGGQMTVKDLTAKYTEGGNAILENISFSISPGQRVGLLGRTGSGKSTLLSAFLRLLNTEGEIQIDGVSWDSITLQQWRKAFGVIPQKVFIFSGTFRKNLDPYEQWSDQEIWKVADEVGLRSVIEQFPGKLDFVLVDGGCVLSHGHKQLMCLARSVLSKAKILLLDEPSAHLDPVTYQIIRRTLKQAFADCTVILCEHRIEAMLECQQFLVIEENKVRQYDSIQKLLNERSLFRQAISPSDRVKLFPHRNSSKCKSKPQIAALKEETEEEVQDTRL

The first test has as its target T1, F508del (Homo sapiens, UniProt P13569, DEL508-508).
T1 construct: expressed in transfected cells
Description: Protocol 2: FRET membrane potential optical assay (VIPR), identification of correction compounds. Type of test: cell-based. Conditions: F508del CFTR modulator activity; compounds of Table 1; read-out: EC30. A digest of the protocol: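 Single-addition HTS format: F508del-expressing NIH3T3 cells pre-incubated 16 hrs at 37° C. ± compound, with 27° C. culture as positive control. Channel activation by forskolin 10 μM and genistein 20 μM upon switch to gluconate bath, pH 7.4; read-out is FRET-based depolarization signal.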
Regarding `CC1CN(c2ncc(-c3ccc(C(F)(F)F)cc3)cc2C(=O)NS(=O)(=O)c2cccc(N)n2)C(C)(C)C1` (stereo not drawn) [Compound 2337, N-[(6-amino-2-pyridyl)sulfonyl]-5-[4-(trifluoromethyl)phenyl]-2-(2,2,4-trimethylpyrrolidin-1-yl)pyridine-3-carboxamide], the EC30 was below 3000 nM.
As for `CC(C)COc1cc(F)cc(-c2ccc(C(=O)NS(=O)(=O)c3cccc(N)n3)c(N(C)CC3CCCCC3)n2)c1` [Compound 2289, N-[(6-amino-2-pyridyl)sulfonyl]-2-[cyclohexylmethyl(methyl)amino]-6-(3-fluoro-5-isobutoxy-phenyl)pyridine-3-carboxamide], the EC30 was below 3000 nM.
Turning to `CC(C)COc1cc(F)cc(-c2ccc(C(=O)NS(=O)(=O)c3cccc(N)n3)c(N3CCC(O)CC3)n2)c1` [Compound 2323, N-[(6-amino-2-pyridyl)sulfonyl]-6-(3-fluoro-5-isobutoxy-phenyl)-2-(4-hydroxy-1-piperidyl)pyridine-3-carboxamide], the EC30 fell in the range of 3000 to 10000 nM.
Consider `Cc1cccc(Oc2cccc(S(=O)(=O)NC(=O)c3cccnc3N3CC(C)CC3(C)C)n2)n1` (stereo not drawn) [Compound 2731], for which the EC30 lay in the range of 3000 to 10000 nM.
`C[C@@H]1CN(c2nc(-c3cc(F)ccc3O)ccc2C(=O)NS(=O)(=O)c2ccc[nH]c2=O)C(C)(C)C1` [Compound 2295, 6-(5-fluoro-2-hydroxy-phenyl)-N-[(2-oxo-1H-pyridin-3-yl)sulfonyl]-2-[(4S)-2,2,4-trimethylpyrrolidin-1-yl]pyridine-3-carboxamide]: the EC30 was in the range of 3000 to 10000 nM.
Still for that read-out and setting: with `CC1CN(c2ncccc2C(=O)NS(=O)(=O)c2cccc(NC3CCCCCCC3)n2)C(C)(C)C1` (stereo not drawn) [Compound 2202, N—[[6-(cyclooctylamino)-2-pyridyl]sulfonyl]-2-(2,2,4-trimethylpyrrolidin-1-yl)pyridine-3-carboxamide] the figure was below 3000 nM; with `C[C@@H]1CN(c2nc(-c3cc4ccccc4n3C(=O)OC(C)(C)C)ccc2C(=O)NS(=O)(=O)c2cccnc2N)C(C)(C)C1` [Compound 2657, tert-butyl 2-[5-[(2-amino-3-pyridyl)sulfonylcarbamoyl]-6-[(4S)-2,2,4-trimethylpyrrolidin-1-yl]-2-pyridyl]indole-1-carboxylate], 3000 to 10000 nM.
Take `C[C@@H]1CN(c2nc(-c3ccccc3C(F)(F)F)ccc2C(=O)NS(=O)(=O)c2cccnc2N)C(C)(C)C1` [Compound 2040, N-[(2-amino-3-pyridyl)sulfonyl]-6-[2-(trifluoromethyl)phenyl]-2-[(4S)-2,2,4-trimethylpyrrolidin-1-yl]pyridine-3-carboxamide]: the concentration for an effect of 30% (EC30) was below 3000 nM.
Consider `CC1CN(c2ncccc2C(=O)NS(=O)(=O)c2cccc(Nc3ccc4[nH]ncc4c3)n2)C(C)(C)C1` (stereo not drawn) [Compound 2389, N—[[6-(1H-indazol-5-ylamino)-2-pyridyl]sulfonyl]-2-(2,2,4-trimethylpyrrolidin-1-yl)pyridine-3-carboxamide], for which the EC30 lay within 3000 to 10000 nM.
Same read-out and setting: then `C[C@@H]1CN(c2nc(-c3ccc(OC(F)(F)F)cc3)ccc2C(=O)NS(=O)(=O)c2cccnc2N)C(C)(C)C1` [Compound 2223, N-[(2-amino-3-pyridyl)sulfonyl]-6-[4-(trifluoromethoxy)phenyl]-2-[(4S)-2,2,4-trimethylpyrrolidin-1-yl]pyridine-3-carboxamide], with below 3000 nM; and `CC(C)Oc1cccc(-c2ccc(C(=O)NS(=O)(=O)c3cccnc3N)c(N3C[C@@H](C)CC3(C)C)n2)c1` [Compound 2515, N-[(2-amino-3-pyridyl)sulfonyl]-6-(3-isopropoxyphenyl)-2-[(4S)-2,2,4-trimethylpyrrolidin-1-yl]pyridine-3-carboxamide], with below 3000 nM.
On the same count and under the same terms, with `CC1CN(c2ncccc2C(=O)NS(=O)(=O)c2cccc(OCc3cccc4c3OCO4)n2)C(C)(C)C1` (stereo not drawn) [Compound 2249, N—[[6-(1,3-benzodioxol-4-ylmethoxy)-2-pyridyl]sulfonyl]-2-(2,2,4-trimethylpyrrolidin-1-yl)pyridine-3-carboxamide] the figure was below 3000 nM; with `CC1CN(c2ncc(-c3cc(F)cc(F)c3)cc2C(=O)NS(=O)(=O)c2cccc(N)n2)C(C)(C)C1` (stereo not drawn) [Compound 2259, N-[(6-amino-2-pyridyl)sulfonyl]-5-(3,5-difluorophenyl)-2-(2,2,4-trimethylpyrrolidin-1-yl)pyridine-3-carboxamide], below 3000 nM.
On the same count and under the same terms, then `C[C@@H]1CN(c2nc(-c3ccc(O[C@@H](C)CO)nc3)ccc2C(=O)NS(=O)(=O)c2cccnc2N)C(C)(C)C1` [Compound 2687], with 3000 to 10000 nM.
Consider `CC1CN(c2ncc(-c3ccc(C(C)(C)O)cc3)cc2C(=O)NS(=O)(=O)c2cccc(N)n2)C(C)(C)C1` (stereo not drawn) [Compound 2547, N-[(6-amino-2-pyridyl)sulfonyl]-5-[4-(1-hydroxy-1-methyl-ethyl)phenyl]-2-(2,2,4-trimethylpyrrolidin-1-yl)pyridine-3-carboxamide], for which the EC30 is below 3000 nM.
On to `CC1CN(c2ncccc2C(=O)NS(=O)(=O)c2cccc(NCCc3ccccc3Cl)n2)C(C)(C)C1` (stereo not drawn) [Compound 2632, N—[[6-[2-(2-chlorophenyl)ethylamino]-2-pyridyl]sulfonyl]-2-(2,2,4-trimethylpyrrolidin-1-yl)pyridine-3-carboxamide], for which the EC30 was below 3000 nM.
The same measure, in the same setting: then `C[C@@H]1CN(c2nc(-c3ccc(Cl)cc3)ccc2C(=O)NS(=O)(=O)c2cccnc2N)C(C)(C)C1` [Compound 2367, N-[(2-amino-3-pyridyl)sulfonyl]-6-(4-chlorophenyl)-2-[(4S)-2,2,4-trimethylpyrrolidin-1-yl]pyridine-3-carboxamide], with below 3000 nM.

Staying with this test, now noted: Table 3; compounds of Table 1 as modulators of CFTR activity; protocol not stated.
In the case of `Cc1cc(C)c(Oc2nc(C3CCC(C)CC3)ccc2C(=O)NS(=O)(=O)c2ccc[nH]c2=O)c(C)c1` (stereo not drawn) [Compound 743, 6-(4-methylcyclohexyl)-N-[(2-oxo-1H-pyridin-3-yl)sulfonyl]-2-(2,4,6-trimethylphenoxy)pyridine-3-carboxamide], the EC30 entry is “+++ (“+++” means <3 uM)”.
On the same count and under the same terms, then `Cc1ccccc1CN1Cc2ccccc2C1(C)C(=O)NS(=O)(=O)c1cccc(N)n1` (stereo not drawn) [Compound 666, N-[(6-amino-2-pyridyl)sulfonyl]-1-methyl-2-(o-tolylmethyl)isoindoline-1-carboxamide], with “++ (“++” means between 3 uM and 10 uM)”.
Same read-out and setting: then `Cc1cc(C)c(Oc2nc(C(C)(C)C)ccc2C(=O)NS(=O)(=O)c2cn(C)nc2N)c(C)c1` [Compound 41, N-(3-amino-1-methyl-pyrazol-4-yl)sulfonyl-6-tert-butyl-2-(2,4,6-trimethylphenoxy)pyridine-3-carboxamide], with “+++ (“+++” means <3 uM)”; and `Cc1cc(C)c(Oc2nc(-c3ccc(C(F)(F)F)cc3)ccc2C(=O)NS(=O)(=O)c2cccc(N)n2)c(C)c1` [Compound 548, N-[(6-amino-2-pyridyl)sulfonyl]-6-[4-(trifluoromethyl)phenyl]-2-(2,4,6-trimethylphenoxy)pyridine-3-carboxamide], with “+++ (“+++” means <3 uM)”.
On the same count and under the same terms, with `CC(C)COc1cc(F)cc(-c2ccc(C(=O)NS(=O)(=O)c3cccc(N)n3)c(N3CCCC3C(C)(C)C)n2)c1` (stereo not drawn) [Compound 613, N-[(6-amino-2-pyridyl)sulfonyl]-2-(2-tert-butylpyrrolidin-1-yl)-6-(3-fluoro-5-isobutoxy-phenyl)pyridine-3-carboxamide] the entry was “+++ (“+++” means <3 uM)”; with `CC(C)COc1cc(F)cc(-c2ccc(C(=O)NS(=O)(=O)c3cccc(N)n3)c(N3CCCCC3)n2)c1` [Compound 380, N-[(6-amino-2-pyridyl)sulfonyl]-6-(3-fluoro-5-isobutoxy-phenyl)-2-(1-piperidyl)pyridine-3-carboxamide], “+++ (“+++” means <3 uM)”; with `CCCOc1cc(-c2ccc(C(=O)NS(=O)(=O)c3cccc(N)n3)c(N3CCC(C)CC3)n2)ccc1Cl` [Compound 692, N-[(6-amino-2-pyridyl)sulfonyl]-6-(4-chloro-3-propoxy-phenyl)-2-(4-methyl-1-piperidyl)pyridine-3-carboxamide], “+++ (“+++” means <3 uM)”.
Turning to `Cc1cc(C)c(Cn2c(C(=O)NS(=O)(=O)c3cccc(N)c3)cc3cc(C#N)ccc32)c(C)c1` [Compound 291, N-(3-aminophenyl)sulfonyl-5-cyano-1-[(2,4,6-trimethylphenyl)methyl]indole-2-carboxamide], the 30% effect concentration (EC30) result is “++ (“++” means between 3 uM and 10 uM)”.
The same measure, in the same setting: then `COc1cccnc1S(=O)(=O)NC(=O)c1ccc(C(C)(C)C)nc1Oc1c(C)cc(C)cc1C` [Compound 92, 6-tert-butyl-N-[(3-methoxy-2-pyridyl)sulfonyl]-2-(2,4,6-trimethylphenoxy)pyridine-3-carboxamide], with “+++ (“+++” means <3 uM)”.
As for `Cc1ccccc1Oc1nc(C(C)(C)C)ccc1C(=O)NS(=O)(=O)c1cccc(N)c1` [Compound 296, N-(3-aminophenyl)sulfonyl-6-tert-butyl-2-(2-methylphenoxy)pyridine-3-carboxamide], the EC30 entry is given as “+++ (“+++” means <3 uM)”.
With `Cc1cc(C)c(CN2Cc3ccccc3C2C(=O)NS(=O)(=O)c2ccccc2)c(C)c1` (stereo not drawn) [Compound 6, N-(benzenesulfonyl)-2-[(2,4,6-trimethylphenyl)methyl]isoindoline-1-carboxamide], the EC30 result is recorded as “+++ (“+++” means <3 uM)”.
`Cc1cccc(C)c1Cn1nc(-c2ccc(C(F)(F)F)cc2)cc1C(=O)NS(=O)(=O)c1ccccc1` [Compound 316, N-(benzenesulfonyl)-2-[(2,6-dimethylphenyl)methyl]-5-[4-(trifluoromethyl)phenyl]pyrazole-3-carboxamide]: the EC30 result is “+++ (“+++” means <3 uM)”.
Turning to `CC(C)Oc1ccc(-c2ccc(C(=O)NS(=O)(=O)c3ccc[nH]c3=O)c(N3C[C@H](C)CC3(C)C)n2)cn1` [Compound 403, 6-(6-isopropoxy-3-pyridyl)-N-[(2-oxo-1H-pyridin-3-yl)sulfonyl]-2-[(4R)-2,2,4-trimethylpyrrolidin-1-yl]pyridine-3-carboxamide], the EC30 result was “++ (“++” means between 3 uM and 10 uM)”.
